Columns and labels:
[1] = test system: fibroblast cultures from human PD plaque; assay: Collagen I/III and ASMA immunocytochemistry with QIA in fibroblast cultures from human PD plaque; type: cell-based; settings: for number of ASMA positive cells (myofibroblasts): control 37%; for synthesis of collagen III: PDE inhibitors
Text: (§1) Primary human cell cultures: Human fibroblast primary cultures were obtained from fragments of PD plaque or TA essentially according to Smith and Liu (2002), and their purity was established by immunohistochemistry, as detailed below. New primary cultures were obtained from fragments of PD plaque or TA that were washed in Hanks solution, minced in a fibroblast growth medium (FGM) (BioWhittaker Inc., Walkersville, Md.) and 20% fetal bovine serum (FBS), and plated onto a 25 cm^2 culture flask per specimen (Vernet et al., 2002). Fragments were left undisturbed until attachment for about 1 week. Once the monolayer started to develop, the fragment was removed. Medium with 10% FBS was changed once a week and when cells achieved approximately 80% confluence (3-4 weeks) they were trypsinized and split onto 10 cm plates. Cells were allowed to grow again to 80% confluence, with medium changed twice a week. The cells collected from this passage were considered as passage 1. Successive passages were performed at 1/3 split ratio, and studies were carried out on cells from passages 3 onwards. Studies were performed with PD cells from the 4th to the 10th passages. Cells were incubated on: a) 75 cm^2 flasks for RNA isolation; b) 6-well plates for protein isolation; and c) 8-well removable chambers for cytochemistry and immunocytochemistry. Treatments with different additions were initiated 24 hours after plating and continued for different periods.
In the case of cell cultures, at completion of incubations, slides were removed from the chambers and cells were fixed for immunodetection for 20 min in 4% buffered formalin at room temperature for α-smooth muscle actin (ASMA) (as a myofibroblast marker), vimentin (as a general fibroblast marker), and in certain cases for PDE5 and PDE4, or in ethanol at −20 C for collagen I and III (Vernet et al., 2002). The cells were quenched, blocked with normal goat serum and incubated with monoclonal primary antibodies for ASMA and vimentin (Sigma Immunohistology Kits, Sigma Chemical Co, St. Louis, Mo.), collagen I, and collagen III (1:40) (Chemicon International, Temecula, Calif.), overnight at 4° C. (Vernet et al., 2002; Ferrini et al., 2002). Processing was according with the manufacturer's instructions for ASMA, vimentin and collagen, consisting in the respective monoclonal antibodies and an anti-mouse biotinylated secondary antibody, followed by avidin-biotinylated HRP and the 3-amino-9-ethylcarbazol (AEC) chromogen. For PDE5A, the antibodies were as described above. Negative controls omitted the first antibodies or were replaced by IgG isotype at the same concentration of the first antibodies. Counterstaining was done with Mayer's hematoxylin. All the slides were mounted with Aqua Mount (Lerner, Pittsburgh, Pa.). For PDE4, the anti PDE4A and PDE4B affinity purified IgGs used for western blot was employed, and in addition the anti-PDE4A4 and anti-PDE4D (detecting variants 1-5) from the same source (FabGennix Inc.) were used.
(§2) The quantitation of the staining obtained by either histochemical or immunohisto/cytochemical techniques was performed by computerized densitometry using the ImagePro 4.01 program (Media Cybernetics, Silver Spring, Md.), coupled to an Olympus BHS microscope equipped with a Spot RT digital camera or VCC video camera (Wang et al., 2001; Ferrini et al., 2001a, 2001b; Davila et al., 2003b).

[2] = test system: fibroblast cultures from human PD plaque; assay: TUNEL apoptosis in fibroblast cultures from human PD plaque
Description: Cells incubated in 8-well chamber slides were allowed to grow to 50-60% confluence. At this point, cells received in duplicate sildenafil, pentoxifylline, or 8-Br cGMP at the concentrations indicated, and were allowed to propagate for 3 days without changing medium. In certain cases SNAP was added and replaced daily after changing the medium (Vernet et al., 2002). All studies were done in duplicate or triplicate.
For cell cultures, the cells were fixed in 4% formaldehyde for 30 min on ice, and post-fixed with ethanol-acetic acid 2/1 for 5 min at −20 C. Then the above procedure was applied, except that the proteinase K was omitted.
The number of positive cells was counted in a computerized grid against the total number of cells determined by counterstaining, and results were expressed as a percentage of positive cells over total cells. […] The apoptotic index (rate of programmed cell death) was calculated as the percentage of apoptotic cells within the total number of cells in a given area (non-apoptotic nuclei plus apoptotic cells). In all cases, five non-overlapping fields were screened per tissue section or per well. Three sections per tissue specimen from groups of five animals, or two wells per experimental point in cell incubations, were then used to calculate the means+/−SEM.

[3] = test system: fibroblast cultures from human PD plaque; assay: cGMP and cAMP enzyme immunoassays in fibroblast cultures from human PD plaque; type: cell-based; settings: for cGMP levels as % of control levels: 3-day incubation
Text: as §1
The presence of PDEs in the PD fibroblasts in culture was confirmed by the ability of increasing concentrations of sildenafil and pentoxifylline to raise the basal cGMP and cAMP levels in triplicate wells, either in the absence or the presence of the NO donor, SNAP (S-nitroso-N-acetyl penicillamine) (Alexis Biochemicals, San Diego, Calif.) added daily at 100 μM, as measured by cGMP and cAMP EIA (enzyme immuno absorption) kits (Cayman Chemical, Ann Arbor, Mich.). Experiments were performed in duplicate. Values were expressed as pmoles cGMP or cAMP/mg protein. To normalize for differences between experiments, the changes in cGMP and cAMP levels exerted by sildenafil and pentoxifylline were expressed as % of their respective control values in the absence of the PDE inhibitors.

[4] = test system: TGF-β1-induced fibrotic plaque in the rat tunica albuginea; assay: TGF-β1 rat model of Peyronie's disease, plaque and collagen deposition by Masson staining with QIA; type: in vivo; settings: for plaque size (Masson staining, collagen fiber/cell-lacunae area ratio, width of the tunica): oral in drinking water, 100 mg/l, 45 days following TGF-β1 injection
Description: (§3) TGF-β1 rat model. Male Fisher 344 rats, 9-11 month old purchased from the NIH/NIA colony (Harlan Sprague-Dawley, Inc., San Diego, Calif.) and maintained under controlled temperature and lighting, were anesthetized and injected in the penile TA at the middle of the penis with either vehicle only (saline, group 1) or 0.5 μg recombinant human TGF-β1 (Biotech Diagnostic, Laguna Niguel, Calif., groups 2-5) as disclosed (Ferrini et al., 2002; Vernet et al., 2002). After the injection, groups 1 and 2 were given drinking water while the other groups received water with L-arginine (2.25 g/kg/day, group 3) (Moody et al., 1997), or sildenafil (10 mg/kg/day, group 4) or pentoxifylline (10 mg/kg/day, group 5). Forty-five days later, or as indicated, animals were sacrificed and perfused through the left ventricle with saline followed by 4% formalin ((Ferrini et al., 2002; Vernet et al., 2002). After the penises were excised, the penile skin was denuded by removing the glans and adhering non-crural tissue. The penile shaft was separated from the crura and 2-3 mm transverse slices were cut around the site of the saline or TGF-β1 injection. All tissues were post-fixed overnight in 4% formalin, washed in PBS and stored at 4° C.
In the case of tissue sections, the determinations of the collagen/smooth muscle ratio were carried out with Masson trichrome (Ferrini et al., 2002; Davila et al., 2003b) on adjacent 5 μm paraffin-embedded cross-sections from the human normal tunical or plaque tissues, or from a 2 mm area around the site of injection in the rat saline- and TGF-β1-injected shaft tissues. Other distal sections were obtained along the rat penile shaft.
as §2

[5] = test system: TGF-β1-induced fibrotic plaque in the rat tunica albuginea; assay: TUNEL apoptosis in the TGF-β1-induced plaque of the rat tunica albuginea; type: in vivo; settings: for apoptotic index in the plaque: oral in drinking water, 100 mg/l, 45 days following TGF-β1 injection
Description: as §3

[6] = test system: normal human TA and PD fibroblast cultures; assay: Fibroblast numbers in normal human TA and PD cultures; type: cell-based; settings: both normal human TA and PD cultures
Text: as §1, with “Treatments with different additions were initiated 24 hours after plating and continued for different periods.” left out

[7] = cited from earlier work
PDE5A3 = PDE5A3 (Homo sapiens, UniProt O76074); settings: cited from earlier work
[8] = in the presence of SNAP (100 uM), increasing concentrations

In the case of `Nc1nc2c(nc(Br)n2[C@@H]2O[C@@H]3COP(=O)(O)O[C@H]3[C@H]2O)c(=O)[nH]1` [8 Br-cGMP], the “reduction in the number of cells expressing collagen I” value ([1]; 10 μM, 3 days) is reported as 30%, the “ASMA expression per cell (myofibroblast differentiation)” value ([1]; 400 μM, 3 days) is reported as “decreased significantly” and the “number of cells expressing collagen I” value ([1]; 400 μM, 3 days, compared with 10 μM) is reported as “did not induce further decrease”. The “collagen I expression per cell” value ([1]; 3 days) was “reduced only moderately and non-significantly”, the “relative number of ASMA positive cells” value ([1]; 3 days) was “no effect” and the “collagen I production by the cells” value ([1]; levels as low as 10 uM) was “inhibited collagen I production”. The “apoptosis by TUNEL” value ([2]; 100 uM, control 7.5+/−0.4) was 20.5+/−1.1 cells per field, the “increase of apoptosis (apoptotic index, TUNEL, image analysis)” value ([2]; 3 days, did not achieve statistical significance) was 2.3 fold and the “intracellular cGMP levels” value ([3]; 100 uM, control 0.02) was 1.83 nmoles/10^6 cells. For the same compound, the “increase of cGMP levels in cell extracts” value ([3]; 8 Br-cGMP at 10 uM) was 6.4 fold and the “increase of cGMP levels in cell extracts” value ([3]; 8 Br-cGMP at 100 μM) was 38.7 fold.
In the case of `N=C(N)NCCC[C@H](N)C(=O)O` [L-arginine], the “size of the TGF-β1-induced plaque (Masson staining, collagen fiber/cell-lacunar area ratio)” value ([4]; oral L-arginine in drinking water (2.25%), 45 days after TGF-β1 injection) is reported as “considerable decrease in the size”, the “apoptotic index (apoptotic cells/total number of cells) in the plaque” value ([5]; oral L-arginine (2.25%)) is reported as “no significant difference” and the “number of apoptotic cells per field in the PD-like plaque” value ([5]; oral L-arginine (2.25%), vs control animals) is reported as “increase”.
In the case of `CC(=O)N[C@H](C(=O)O)C(C)(C)SN=O` [SNAP, S-Nitroso-N-acetyl penicillamine], the “collagen I synthesis in all the cells” value ([1]; NO donor in culture) is reported as “inhibitory action”, the myofibroblast differentiation ([1]; NO donor in culture) is reported as “inhibitory action” and the fibroblast numbers [6] is reported as “reduced fibroblast numbers”. The “increase of cGMP levels in cell extracts” value ([3]; 100 uM SNAP, 3 days, daily replacement, basal 5.0+/−0.4 pmol/mg protein) was 5.0 fold and the cAMP levels ([3]; after 3 days with SNAP, basal 42.6+/−12.7 pmol/mg protein) was “did not vary significantly”.
For `CC(=O)CCCCn1c(=O)c2c(ncn2C)n(C)c1=O` [pentoxifylline], the “number of ASMA positive cells (myofibroblasts)” value ([1]; 3 days) was “about 24%”, the “synthesis of collagen III” value ([1]; 3 days) was “did not decrease, but even increased” and the “plaque size (Masson staining, collagen fiber/cell-lacunae area ratio, width of the tunica)” value [4] was “considerable reduction in plaque size”. For the same compound, the “apoptotic index in the plaque” value [5] was “intensification of the apoptotic index, especially for pentoxifylline”, the “cGMP levels as % of control levels” value [3, 8] was “did not increase significantly” and the “cAMP levels as % of control levels” value ([3]; in the presence of SNAP (100 uM), increasing concentrations, 3 days) was “very effective in increasing cAMP levels”.
In the case of `CCCc1nn(C)c2c(=O)[nH]c(-c3cc(S(=O)(=O)N4CCN(C)CC4)ccc3OCC)nc12` [sildenafil], the “number of ASMA positive cells (myofibroblasts)” value ([1]; 3 days) is reported as “about 24%”, the “synthesis of collagen III” value ([1]; 3 days) is reported as “did not decrease, but even increased” and the “plaque size (Masson staining, collagen fiber/cell-lacunae area ratio, width of the tunica)” value [4] is reported as “considerable reduction in plaque size”. The “apoptotic index in the plaque” value [5] was “intensification of the apoptotic index”, the half-life [7] was 4 to 6 h and the cGMP levels ([3]; in the absence of SNAP) was “did not significantly stimulate”. For the same compound, the “cGMP levels as % of control levels” value [3, 8] was “increased dose-dependently” and the “sensitivity of PDE5A3 to sildenafil compared with PDE5A1” value (PDE5A3) was “twice as sensitive”.
